Article PMC12120022, “Discovery and chemical optimisation of a potent, Bi-cyclic antimicrobial inhibitor of Escherichia coli PBP3” (Communications Biology, 2025)
Where a SMILES comes first, the peptide text is derived from it.

target: T1, EcPBP3 (Escherichia coli, UniProt P0AD68); assay: Fluorescence polarisation competition assay with fluorescent Bicycle tracer (tracer 1 / BCY12820); assay type: binding; conditions: protein 9.4 nM sets sensitivity limit, top concentration 5 µM, read-out: Ki (nM) by fluorescence polarisation with tracer 1 (BCY12820 as tracer), Geometric mean (Lower 95% CI; Upper 95% CI, n=number of values)
T1 construct: For assays, selections and SPR a construct with residues 60–588 which has the N-terminal domain, but not the transmembrane helix, was used; made in house
T1 sequence (P0AD68 60-588): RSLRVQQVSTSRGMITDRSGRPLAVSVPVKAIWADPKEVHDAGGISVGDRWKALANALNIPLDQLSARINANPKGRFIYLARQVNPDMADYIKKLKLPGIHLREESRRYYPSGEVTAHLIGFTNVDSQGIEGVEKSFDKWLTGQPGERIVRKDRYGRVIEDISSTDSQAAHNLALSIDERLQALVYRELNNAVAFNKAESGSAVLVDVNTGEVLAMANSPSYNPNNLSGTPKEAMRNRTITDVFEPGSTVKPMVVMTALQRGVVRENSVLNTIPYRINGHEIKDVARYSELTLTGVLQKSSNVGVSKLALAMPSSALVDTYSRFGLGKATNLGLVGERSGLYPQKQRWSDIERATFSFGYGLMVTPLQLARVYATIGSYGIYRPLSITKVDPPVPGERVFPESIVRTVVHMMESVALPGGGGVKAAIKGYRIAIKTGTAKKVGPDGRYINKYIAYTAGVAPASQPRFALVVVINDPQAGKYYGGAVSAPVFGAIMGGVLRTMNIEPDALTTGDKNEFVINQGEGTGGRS
Method: Competition fluorescence polarisation assays were run by observing the fluorescence polarisation of a fluorescent “tracer” Bicycle molecule which competes against an unlabelled peptide for binding to the EcPBP3 target. 10 µL of protein (9.4 nM) was mixed with either 5 µL of peptide or 5 µL of buffer and then the assay was initiated by the addition of 10 µL of tracer (1 nM) (final volume 25 µL), in a black 384 low bind, low volume plate (Corning). The buffer was 10 mM HEPES (Sigma), 2% (v/v) glycerol (Sigma), 300 mM NaCl (Sigma), adjusted to pH 8. The plate was incubated for 1 h at 25 °C and then read in a PHERAstar FS (BMG) using with an “FP 485 520 520” optic module (excitation 485 nm, emission 520 nm). The gain was determined immediately prior to the read on a tracer-only well.
Dotmatics (Dotmatics) workflows performing the above calculations were used to process the data. Values quoted are the geometric means of at least 2 repeats.

SMILES	Ki [nM]
CC(C)[C@@H]1NC(=O)[C@H](Cc2c[nH]c3ccccc23)NC(=O)[C@@H]2CCCN2C(=O)[C@@H]2CSCCC(=O)N3CN(CN(C3)C(=O)CCSC[C@H](NC(=O)[C@H](C)N)C(=O)N[C@@H](CO)C(=O)N[C@@H](Cc3ccccc3)C(=O)N[C@@H]([C@@H](C)O)C(=O)N[C@@H](CCCCNC(=N)N)C(=O)N2)C(=O)CCSC[C@@H](C(=O)N[C@@H](C)C(N)=O)NC(=O)CNC(=O)[C@H](CCC(=O)O)NC1=O [Peptide 36] (HELM PEPTIDE1{A.C.S.F.T.[N=C(N)NCCCC[C@H](N[*:1])C(=O)[*:2]].C.P.W.V.E.G.C.A.[am]}|CHEM1{[O=C(CC[*:1])N1CN(C(=O)CC[*:2])CN(C(=O)CC[*:3])C1]}$PEPTIDE1,CHEM1,2:R3-1:R1|PEPTIDE1,CHEM1,7:R3-1:R2|PEPTIDE1,CHEM1,13:R3-1:R3$$$V2.0)	75
CC(C)[C@@H]1NC(=O)[C@H](Cc2c[nH]c3ccccc23)NC(=O)[C@@H]2CCCN2C(=O)[C@@H]2CSCCC(=O)N3CN(CN(C3)C(=O)CCSC[C@H](NC(=O)[C@H](C)N)C(=O)N[C@@H](CC(N)=O)C(=O)N[C@@H](Cc3ccccc3)C(=O)N3CCC[C@H]3C(=O)N[C@@H](CCCCNC(=N)N)C(=O)N2)C(=O)CCSC[C@@H](C(=O)N[C@@H](C)C(N)=O)NC(=O)CNC(=O)[C@H](CCC(=O)O)NC1=O [Peptide 29] (HELM PEPTIDE1{A.C.N.F.P.[N=C(N)NCCCC[C@H](N[*:1])C(=O)[*:2]].C.P.W.V.E.G.C.A.[am]}|CHEM1{[O=C(CC[*:1])N1CN(C(=O)CC[*:2])CN(C(=O)CC[*:3])C1]}$PEPTIDE1,CHEM1,2:R3-1:R1|PEPTIDE1,CHEM1,7:R3-1:R2|PEPTIDE1,CHEM1,13:R3-1:R3$$$V2.0)	< 9
CC[C@H](C)[C@@H]1NC(=O)[C@H](Cc2c[nH]c3ccccc23)NC(=O)[C@@H]2CCCN2C(=O)[C@@H]2CSCCC(=O)N3CN(CN(C3)C(=O)CCSC[C@H](NC(=O)[C@H](C)N)C(=O)N[C@@H](CO)C(=O)N[C@@H](Cc3ccccc3)C(=O)N3CCC[C@H]3C(=O)N[C@@H](CCCCNC(=N)N)C(=O)N2)C(=O)CCSC[C@@H](C(=O)N[C@@H](C)C(N)=O)NC(=O)CNC(=O)[C@H](CCC(=O)O)NC1=O [Peptide 45] (HELM PEPTIDE1{A.C.S.F.P.[N=C(N)NCCCC[C@H](N[*:1])C(=O)[*:2]].C.P.W.I.E.G.C.A.[am]}|CHEM1{[O=C(CC[*:1])N1CN(C(=O)CC[*:2])CN(C(=O)CC[*:3])C1]}$PEPTIDE1,CHEM1,2:R3-1:R1|PEPTIDE1,CHEM1,7:R3-1:R2|PEPTIDE1,CHEM1,13:R3-1:R3$$$V2.0)	< 9
CC(C)[C@@H]1NC(=O)[C@H](Cc2c[nH]c3ccccc23)NC(=O)[C@@H]2CCCN2C(=O)[C@@H]2CSCCC(=O)N3CN(CN(C3)C(=O)CCSC[C@@H](C(=O)N[C@@H](C)C(N)=O)NC(=O)[C@H](CC(N)=O)NC(=O)[C@H](CCC(=O)O)NC1=O)C(=O)CCSC[C@H](NC(=O)[C@H](C)N)C(=O)N[C@@H](CO)C(=O)N[C@@H](Cc1ccccc1)C(=O)N1CCC[C@H]1C(=O)N[C@@H](CCCCNC(=N)N)C(=O)N2 [Peptide 52] (HELM PEPTIDE1{A.C.S.F.P.[N=C(N)NCCCC[C@H](N[*:1])C(=O)[*:2]].C.P.W.V.E.N.C.A.[am]}|CHEM1{[O=C(CC[*:1])N1CN(C(=O)CC[*:2])CN(C(=O)CC[*:3])C1]}$PEPTIDE1,CHEM1,2:R3-1:R1|PEPTIDE1,CHEM1,7:R3-1:R2|PEPTIDE1,CHEM1,13:R3-1:R3$$$V2.0)	< 9
CC(C)[C@@H]1NC(=O)[C@H](Cc2c[nH]c3ccccc23)NC(=O)[C@@H]2CCCN2C(=O)[C@@H]2CSCCC(=O)N3CN(CN(C3)C(=O)CCSC[C@H](NC(=O)[C@H](C)N)C(=O)N[C@@H](CO)C(=O)N[C@@H](Cc3ccccc3)C(=O)N3CCC[C@H]3C(=O)N[C@@H](CCCCNC(=N)N)C(=O)N2)C(=O)CCSC[C@@H](C(=O)N[C@@H](C)C(N)=O)NC(=O)CNC(=O)[C@@H]2CCCN2C1=O [Peptide 47] (HELM PEPTIDE1{A.C.S.F.P.[N=C(N)NCCCC[C@H](N[*:1])C(=O)[*:2]].C.P.W.V.P.G.C.A.[am]}|CHEM1{[O=C(CC[*:1])N1CN(C(=O)CC[*:2])CN(C(=O)CC[*:3])C1]}$PEPTIDE1,CHEM1,2:R3-1:R1|PEPTIDE1,CHEM1,7:R3-1:R2|PEPTIDE1,CHEM1,13:R3-1:R3$$$V2.0)	18
CC(C)[C@@H]1NC(=O)[C@H](Cc2c[nH]c3ccccc23)NC(=O)[C@@H]2CCCN2C(=O)[C@@H]2CSCCC(=O)N3CN(CN(C3)C(=O)CCSC[C@H](NC(=O)[C@H](C)N)C(=O)N[C@@H](CCC(N)=O)C(=O)N[C@@H](Cc3ccccc3)C(=O)N3CCC[C@H]3C(=O)N[C@@H](CCCCNC(=N)N)C(=O)N2)C(=O)CCSC[C@@H](C(=O)N[C@@H](C)C(N)=O)NC(=O)CNC(=O)[C@H](CCC(=O)O)NC1=O [Peptide 30] (HELM PEPTIDE1{A.C.Q.F.P.[N=C(N)NCCCC[C@H](N[*:1])C(=O)[*:2]].C.P.W.V.E.G.C.A.[am]}|CHEM1{[O=C(CC[*:1])N1CN(C(=O)CC[*:2])CN(C(=O)CC[*:3])C1]}$PEPTIDE1,CHEM1,2:R3-1:R1|PEPTIDE1,CHEM1,7:R3-1:R2|PEPTIDE1,CHEM1,13:R3-1:R3$$$V2.0)	< 9
CC(C)[C@@H]1NC(=O)[C@H](Cc2c[nH]c3ccccc23)NC(=O)[C@@H]2CCCN2C(=O)[C@@H]2CSCCC(=O)N3CN(CN(C3)C(=O)CCSC[C@H](NC(=O)[C@H](C)N)C(=O)N[C@@H](CO)C(=O)N[C@@H](Cc3ccccc3)C(=O)NCC(=O)N[C@@H](CCCCNC(=N)N)C(=O)N2)C(=O)CCSC[C@@H](C(=O)N[C@@H](C)C(N)=O)NC(=O)CNC(=O)[C@H](CCC(=O)O)NC1=O [Peptide 33] (HELM PEPTIDE1{A.C.S.F.G.[N=C(N)NCCCC[C@H](N[*:1])C(=O)[*:2]].C.P.W.V.E.G.C.A.[am]}|CHEM1{[O=C(CC[*:1])N1CN(C(=O)CC[*:2])CN(C(=O)CC[*:3])C1]}$PEPTIDE1,CHEM1,2:R3-1:R1|PEPTIDE1,CHEM1,7:R3-1:R2|PEPTIDE1,CHEM1,13:R3-1:R3$$$V2.0)	53.5
CC(C)[C@@H]1NC(=O)[C@H](Cc2c[nH]c3ccccc23)NC(=O)[C@@H]2CCCN2C(=O)[C@@H]2CSCCC(=O)N3CN(CN(C3)C(=O)CCSC[C@H](NC(=O)[C@H](C)N)C(=O)N[C@@H](CO)C(=O)N[C@@H](Cc3ccccc3)C(=O)N[C@@H](Cc3c[nH]cn3)C(=O)N[C@@H](CCCCNC(=N)N)C(=O)N2)C(=O)CCSC[C@@H](C(=O)N[C@@H](C)C(N)=O)NC(=O)CNC(=O)[C@H](CCC(=O)O)NC1=O [Peptide 37] (HELM PEPTIDE1{A.C.S.F.H.[N=C(N)NCCCC[C@H](N[*:1])C(=O)[*:2]].C.P.W.V.E.G.C.A.[am]}|CHEM1{[O=C(CC[*:1])N1CN(C(=O)CC[*:2])CN(C(=O)CC[*:3])C1]}$PEPTIDE1,CHEM1,2:R3-1:R1|PEPTIDE1,CHEM1,7:R3-1:R2|PEPTIDE1,CHEM1,13:R3-1:R3$$$V2.0)	31.5
CC(C)[C@@H]1NC(=O)[C@H](Cc2c[nH]c3ccccc23)NC(=O)[C@@H]2CCCN2C(=O)[C@@H]2CSCCC(=O)N3CN(CN(C3)C(=O)CCSC[C@H](NC(=O)[C@H](C)N)C(=O)N[C@@H](CO)C(=O)N[C@@H](Cc3c[nH]cn3)C(=O)N3CCC[C@H]3C(=O)N[C@@H](CCCCNC(=N)N)C(=O)N2)C(=O)CCSC[C@@H](C(=O)N[C@@H](C)C(N)=O)NC(=O)CNC(=O)[C@H](CCC(=O)O)NC1=O [Peptide 32] (HELM PEPTIDE1{A.C.S.H.P.[N=C(N)NCCCC[C@H](N[*:1])C(=O)[*:2]].C.P.W.V.E.G.C.A.[am]}|CHEM1{[O=C(CC[*:1])N1CN(C(=O)CC[*:2])CN(C(=O)CC[*:3])C1]}$PEPTIDE1,CHEM1,2:R3-1:R1|PEPTIDE1,CHEM1,7:R3-1:R2|PEPTIDE1,CHEM1,13:R3-1:R3$$$V2.0)	115
CC(C)[C@@H]1NC(=O)[C@H](Cc2c[nH]cn2)NC(=O)[C@@H]2CCCN2C(=O)[C@@H]2CSCCC(=O)N3CN(CN(C3)C(=O)CCSC[C@H](NC(=O)[C@H](C)N)C(=O)N[C@@H](CO)C(=O)N[C@@H](Cc3ccccc3)C(=O)N3CCC[C@H]3C(=O)N[C@@H](CCCCNC(=N)N)C(=O)N2)C(=O)CCSC[C@@H](C(=O)N[C@@H](C)C(N)=O)NC(=O)CNC(=O)[C@H](CCC(=O)O)NC1=O [Peptide 44] (HELM PEPTIDE1{A.C.S.F.P.[N=C(N)NCCCC[C@H](N[*:1])C(=O)[*:2]].C.P.H.V.E.G.C.A.[am]}|CHEM1{[O=C(CC[*:1])N1CN(C(=O)CC[*:2])CN(C(=O)CC[*:3])C1]}$PEPTIDE1,CHEM1,2:R3-1:R1|PEPTIDE1,CHEM1,7:R3-1:R2|PEPTIDE1,CHEM1,13:R3-1:R3$$$V2.0)	> 5000
CC(C)[C@@H]1NC(=O)[C@H](Cc2c[nH]c3ccccc23)NC(=O)CNC(=O)[C@@H]2CSCCC(=O)N3CN(CN(C3)C(=O)CCSC[C@H](NC(=O)[C@H](C)N)C(=O)N[C@@H](CO)C(=O)N[C@@H](Cc3ccccc3)C(=O)N3CCC[C@H]3C(=O)N[C@@H](CCCCNC(=N)N)C(=O)N2)C(=O)CCSC[C@@H](C(=O)N[C@@H](C)C(N)=O)NC(=O)CNC(=O)[C@H](CCC(=O)O)NC1=O [Peptide 41] (HELM PEPTIDE1{A.C.S.F.P.[N=C(N)NCCCC[C@H](N[*:1])C(=O)[*:2]].C.G.W.V.E.G.C.A.[am]}|CHEM1{[O=C(CC[*:1])N1CN(C(=O)CC[*:2])CN(C(=O)CC[*:3])C1]}$PEPTIDE1,CHEM1,2:R3-1:R1|PEPTIDE1,CHEM1,7:R3-1:R2|PEPTIDE1,CHEM1,13:R3-1:R3$$$V2.0)	> 5000
